Assay results published in patent publication CN101879305A, “血清胸腺因子在制备抗肿瘤药物、肿瘤物理及化学治疗药物的保护药物方面的用途” (priority 2007, dated 2010).
Ends that are not written are not given here.

What was measured:
H22实体瘤 = experiment: Anti-tumour test, H22 solid tumour in mice (Example 2); format: in vivo, 昆明小鼠; details: positive control 环磷酰胺 20mg·kg-1, single dose
Walker-256瘤 = experiment: Anti-tumour test, Walker-256 tumour in rats (Example 3); format: in vivo, Wistar大鼠; details: positive control 环磷酰胺 89.2mg.kg-1, single dose
人肝癌Heps瘤 = experiment: Anti-tumour test, human liver cancer Heps xenograft in nude mice (Example 4); format: in vivo, 裸鼠; details: positive control 环磷酰胺 10mg·kg-1, single dose
EAC腹水瘤 = experiment: Anti-tumour test, EAC ascites tumour in mice (Example 1); format: in vivo, 昆明小鼠; details: positive control 5-氟尿嘧啶 25mg·kg-1, every other day, three times
[1] = Immune indicators in Co60-irradiated mice (white cell count, carbon clearance, organ indices) (Example 8); format: in vivo, 昆明鼠; details: 650 rad Co60, after one week
[2] = Acute toxicity, single tail-vein injection, 7-day observation (Example 7); format: in vivo, 昆明小鼠; details: for 死亡(%): 20 mice, 7 days; for 给药前体重: before dosing (baseline)

C#C[C@]1(O)[C@H](O)C[C@H]2[C@@H]3CCc4cc(OC5CCCC5)ccc4[C@H]3CC[C@@]21C [环磷酰胺]
实体瘤的重量 (H22实体瘤): 0.6 ± 0.5 g | 抑瘤率 (H22实体瘤; vs blank group): 84.8 % | 肿瘤的重量 (Walker-256瘤): 2.6 ± 1.7 g | 抑瘤率(%) (Walker-256瘤; vs blank group): 85.4 % | 抑瘤率 (人肝癌Heps瘤): 62.43 % | 肿瘤的体积(mm3) (人肝癌Heps瘤): 99.73±68.60 mm3 | 肿瘤的重量 (人肝癌Heps瘤): 0.57 ± 0.12 g

O=c1[nH]cc(F)c(=O)[nH]1 [5-氟尿嘧啶]
生存时间(天) (EAC腹水瘤): 24.3±4.1 天 | 生命延长率 (EAC腹水瘤; vs blank group): 82.7 %

C#C[C@]1(O)[C@H](O)C[C@H]2[C@@H]3CCc4cc(OC5CCCC5)ccc4[C@H]3CC[C@@]21C [尼尔雌醇]
体重增加 ([1]; positive control 尼尔雌醇 0.05mg/只 single gavage): 3.47 | 吞噬指数α ([1]; 尼尔雌醇 0.05mg/只 single gavage): 6.00 | 廓清指数K ([1]; 尼尔雌醇 0.05mg/只 single gavage): 0.033 | 白细胞个数(个/mm3) ([1]; 尼尔雌醇 0.05mg/只 single gavage): 2693 个/mm3 | 胸腺指数(mg/10g) ([1]; 尼尔雌醇 0.05mg/只 single gavage): 28.32 mg/10g | 脾指数(mg/10g) ([1]; 尼尔雌醇 0.05mg/只 single gavage): 8.96 mg/10g

EAKSQGGSN [FTS, Glu-Ala-Lys-Ser-Gln-Gly-Gly-Ser-Asn]
死亡(%) ([2]; 5.0 mg/kg (0.5 mg/ml) i.v. tail vein once): 0 % | 给药前体重 ([2]; 5.0 mg/kg group): 22.3 ± 2.1 g | 死亡(%) ([2]; 10.0 mg/kg (1.0 mg/ml) i.v. tail vein once): 0 % | 给药前体重 ([2]; 10.0 mg/kg group): 23.4 ± 3.1 g | 死亡(%) ([2]; 50.0 mg/kg (5.0 mg/ml) i.v. tail vein once): 0 % | 给药前体重 ([2]; 50.0 mg/kg group): 23.6 ± 2.5 g | 死亡(%) ([2]; 100.0 mg/kg (10.0 mg/ml) i.v. tail vein once): 0 % | 给药前体重 ([2]; 100.0 mg/kg group): 23.1 ± 2.8 g | 毒性反应或死亡 ([2]; 5.0, 10.0, 50.0 and 100.0 mg/kg groups, i.v.): 未发现任何毒性反应或死亡
